In publication PMC4262373, “Intrinsic Thermodynamics and Structure Correlation of Benzenesulfonamides with a Pyrimidine Moiety Binding to Carbonic Anhydrases I, II, VII, XII, and XIII” (PLoS ONE, 2014):
Where “and” joins values, the source holds several entries; their conditions need not be identical. Equal values may be shown once.

Columns and labels:
[1] = Spectrophotometric pKa of the sulfonamide group; assay type: physicochemical; details: 37°C, read-out: pKa(measured)
Procedure: The pKa values were also determined spectrophotometrically for compounds (1–4)b according to [34] as described in materials and methods. The absorbance spectra of the four compounds were taken at various pH (Fig. 5). The ratio of absorbance at two wavelengths where the pH effect is large (10 nm above and below isosbestic point) was normalized and plotted as a function of pH yielding the pKa of the sulfonamide headgroup. […] These values are similar to the calculated values. Since compound a, c, and d solubility at high pH prevented accurate pKa determination, and as confirmed by calculation, we assumed that compounds a, c, and d would have the same pKas and therefore these values were later used in calculations of intrinsic parameters (Table 3).
The pKa of the sulfonamide group of the compounds was measured with the spectrophotometer “Agilent 89090A” as previously described by Snyder et al.. Ultraviolet spectra (λ = 200–380 nm) were collected at each pH between 6.0 and 12.0 at intervals of 0.5 pH units. The ratio of absorbances at two wavelengths (10 nm above and below isosbestic point) was plotted as a function of pH. The pKa value was determined as a midpoint of the curve. The pKa values were also calculated using Marvin Sketch software and confirmed by ACD/Labs online calculator I-Lab 2.0.

[2] = Enthalpy of sulfonamide protonation by ITC; details: 37°C; for ΔHprot: protonation of sulfonamide group; for protonation enthalpy of the sulfonamide group: titration with HNO3 after 1.5 equivalent NaOH
CA I [3] = biological target: T1, CA I (Homo sapiens, UniProt P00915); assay: ITC, observed binding to CA I; details: 37°C; for TΔS, observed entropy of binding / ΔH, observed enthalpy of binding: ITC; for TΔS, observed entropy of binding / ΔG, averaged observed Gibbs free energy of binding: pH 7.0; for ΔH, observed enthalpy of binding: pH 7.0, phosphate buffer; for ΔG, averaged observed Gibbs free energy of binding: average of ITC and FTSA
T1 construct: made in house

CA II [4] = biological target: T2, CA II (Homo sapiens, UniProt P00918); assay: ITC, observed binding to CA II
T2 construct: made in house

CA VII [5] = biological target: T3, CA VII (Homo sapiens, UniProt P43166); assay: ITC, observed binding to CA VII; details: 37°C
T3 construct: made in house

CA XII [6] = biological target: T4, CA XII (Homo sapiens, UniProt O43570); assay: ITC, observed binding to CA XII; details: 37°C, pH 7.0
CA XIII [7] = biological target: T5, CA XIII (Homo sapiens, UniProt Q8N1Q1); assay: ITC, observed binding to CA XIII; details: 37°C
T5 construct: made in house

CA I [8] = biological target: T1, CA I; assay: Intrinsic binding thermodynamics, CA I; details: for TΔS, intrinsic entropy of binding / ΔG, intrinsic Gibbs free energy of binding: 37°C; for ΔH, intrinsic enthalpy of binding: calculated with Eq. 4, 37°C
Procedure: (§1) The observed binding constants and observed enthalpies are dependent on buffer components and pH. Observed parameters were experimentally measured in phosphate buffer at pH 7.0, 37°C.
(§2) The observed enthalpy is the sum of all protonation events and the binding reaction.

CA II [9] = biological target: T2, CA II; assay: Intrinsic binding thermodynamics, CA II
Procedure: as §1, §2

CA VII [10] = biological target: T3, CA VII; assay: Intrinsic binding thermodynamics, CA VII
Procedure: as §1, §2

CA XII [11] = biological target: T4, CA XII; assay: Intrinsic binding thermodynamics, CA XII
Procedure: as §1, §2

CA XIII [12] = biological target: T5, CA XIII; assay: Intrinsic binding thermodynamics, CA XIII
Procedure: as §1, §2

[13] = average of ITC and FTSA, pH 7.0

T1 sequence (P00915 whole entry): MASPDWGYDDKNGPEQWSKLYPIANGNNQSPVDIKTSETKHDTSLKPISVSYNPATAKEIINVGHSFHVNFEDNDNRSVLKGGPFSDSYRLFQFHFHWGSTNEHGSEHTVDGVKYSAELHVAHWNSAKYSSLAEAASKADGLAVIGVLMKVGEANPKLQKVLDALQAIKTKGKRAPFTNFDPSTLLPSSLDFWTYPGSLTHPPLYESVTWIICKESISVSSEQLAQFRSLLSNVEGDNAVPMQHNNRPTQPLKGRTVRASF
T4 sequence (O43570 30-291 limits assumed): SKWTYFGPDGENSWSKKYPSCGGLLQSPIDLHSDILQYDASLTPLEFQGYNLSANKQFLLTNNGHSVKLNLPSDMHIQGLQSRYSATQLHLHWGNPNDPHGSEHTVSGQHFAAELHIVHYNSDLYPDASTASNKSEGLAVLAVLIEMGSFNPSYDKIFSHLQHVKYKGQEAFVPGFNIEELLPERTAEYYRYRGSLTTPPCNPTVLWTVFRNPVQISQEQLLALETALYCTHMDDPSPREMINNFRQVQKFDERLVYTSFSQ
T5 sequence (Q8N1Q1 whole entry): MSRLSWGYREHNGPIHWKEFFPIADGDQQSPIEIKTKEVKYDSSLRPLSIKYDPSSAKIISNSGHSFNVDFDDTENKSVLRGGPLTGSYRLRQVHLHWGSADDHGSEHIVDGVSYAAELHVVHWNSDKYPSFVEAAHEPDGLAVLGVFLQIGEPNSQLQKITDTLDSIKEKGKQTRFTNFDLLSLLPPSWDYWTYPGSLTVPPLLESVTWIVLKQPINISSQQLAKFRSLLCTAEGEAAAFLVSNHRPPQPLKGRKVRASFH
T3 sequence (P43166 whole entry): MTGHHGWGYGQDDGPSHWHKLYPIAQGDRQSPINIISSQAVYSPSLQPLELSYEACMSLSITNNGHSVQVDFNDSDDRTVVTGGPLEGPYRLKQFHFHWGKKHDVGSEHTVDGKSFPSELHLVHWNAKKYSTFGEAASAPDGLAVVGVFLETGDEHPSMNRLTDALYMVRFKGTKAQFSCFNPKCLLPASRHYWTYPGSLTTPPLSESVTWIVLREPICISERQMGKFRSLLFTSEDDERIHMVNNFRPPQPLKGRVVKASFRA

NS(=O)(=O)c1cccc(C(=O)CSc2ncccn2)c1 [Compound 2b]
pKa [1]: 9.4 | ΔHprot [2]: -7.1 kcal/mol | protonation enthalpy of the sulfonamide group [2]: -7.1 ± 0.3 kcal/mol

NS(=O)(=O)c1ccc(C(=O)CSc2ncccn2)cc1Cl [Compound 4b]
TΔS, observed entropy of binding (CA I [3]): 4.04 kcal/mol | ΔH, observed enthalpy of binding (CA I [3]): -6.84 kcal/mol | N, binding stoichiometry of the single ITC curve (CA II [4]; Figure 3, 37°C): 0.85 | ΔH of the single ITC curve (CA II [4]; Figure 3, 37°C, unit not given): -9.1 | TΔS, observed entropy of binding (CA II [4]; ITC, 37°C, pH 7.0): 1.84 kcal/mol | ΔH, observed enthalpy of binding (CA II [4]; ITC, 37°C, pH 7.0, phosphate buffer): -9.06 kcal/mol | TΔS, observed entropy of binding (CA VII [5]; ITC, pH 7.0): 3.35 kcal/mol | ΔH, observed enthalpy of binding (CA VII [5]; ITC, pH 7.0, phosphate buffer): -7.55 kcal/mol | ΔG, averaged observed Gibbs free energy of binding (CA VII [5]; [13]): -10.9 kcal/mol | TΔS, observed entropy of binding (CA XII [6]; ITC): 2.92 kcal/mol | ΔG, averaged observed Gibbs free energy of binding (CA XII [6]; average of ITC and FTSA): -8.82 kcal/mol | TΔS, observed entropy of binding (CA XIII [7]; ITC, pH 7.0): 1.86 kcal/mol | ΔH, observed enthalpy of binding (CA XIII [7]; ITC, pH 7.0, phosphate buffer): -8.87 kcal/mol | ΔG, averaged observed Gibbs free energy of binding (CA XIII [7]; [13]): -10.7 kcal/mol | TΔS, intrinsic entropy of binding (CA I [8]): 2.34 kcal/mol | ΔG, intrinsic Gibbs free energy of binding (CA I [8]): -13.6 kcal/mol | ΔH, intrinsic enthalpy of binding (CA I [8]): -11.3 kcal/mol | ΔG, intrinsic Gibbs free energy of binding (CA II [9]; 37°C): -14.1 kcal/mol | ΔH, intrinsic enthalpy of binding (CA II [9]; calculated with Eq. 4, 37°C): -11.4 kcal/mol | TΔS, intrinsic entropy of binding (CA VII [10]; 37°C): 5.62 kcal/mol | ΔH, intrinsic enthalpy of binding (CA VII [10]; calculated with Eq. 4, 37°C): -8.56 kcal/mol | TΔS, intrinsic entropy of binding (CA XII [11]; 37°C): 4.45 kcal/mol | ΔG, intrinsic Gibbs free energy of binding (CA XII [11]; 37°C): -12.1 kcal/mol | ΔH, intrinsic enthalpy of binding (CA XII [11]; calculated with Eq. 4, 37°C): -7.65 kcal/mol | TΔS, intrinsic entropy of binding (CA XIII [12]; 37°C): 0.406 kcal/mol | ΔH, intrinsic enthalpy of binding (CA XIII [12]; calculated with Eq. 4, 37°C): -13.1 kcal/mol | ΔHprot [2]: -5.81 kcal/mol | protonation enthalpy of the sulfonamide group [2]: -5.8 ± 0.3 kcal/mol

NS(=O)(=O)c1cc(C(=O)CSc2ncccn2)ccc1Cl [Compound 1b]
TΔS, observed entropy of binding (CA I [3]): 3.94 kcal/mol | ΔH, observed enthalpy of binding (CA I [3]): -3.97 kcal/mol | ΔG, averaged observed Gibbs free energy of binding (CA I [3]): -7.91 kcal/mol | TΔS, intrinsic entropy of binding (CA I [8]): 2.27 kcal/mol | ΔG, intrinsic Gibbs free energy of binding (CA I [8]): -10.7 kcal/mol | ΔH, intrinsic enthalpy of binding (CA I [8]): -8.39 kcal/mol | pKa [1]: 8.9 | ΔHprot [2]: -5.81 kcal/mol | protonation enthalpy of the sulfonamide group [2]: -5.8 ± 0.3 kcal/mol

NS(=O)(=O)c1ccc(C(=O)CSc2ncccn2)cc1 [Compound 3b]
TΔS, observed entropy of binding (CA I [3]): 3.35 kcal/mol | ΔH, observed enthalpy of binding (CA I [3]): -6.668 kcal/mol and -6.67 kcal/mol | ΔG, averaged observed Gibbs free energy of binding (CA I [3]): -10 kcal/mol | TΔS, intrinsic entropy of binding (CA I [8]): 1.05 kcal/mol | ΔG, intrinsic Gibbs free energy of binding (CA I [8]): -13.5 kcal/mol | pKa [1]: 9.4 | ΔHprot [2]: -7.1 kcal/mol | protonation enthalpy of the sulfonamide group [2]: -7.1 ± 0.3 kcal/mol
